According to US10035806B2, “Derivatized corroles and metallocorroles and their use as imaging and therapeutic agents” (CALIFORNIA INSTITUTE OF TECHNOLOGY, priority 2015, dated 2018):

Assays:
Experiment in all cases: NCI60 anticancer drug screen
Type in all cases: cell-based, human
OVCAR-5 = OVCAR-5 (Ovarian Cancer), 10 μM, 48 h
Excerpt: (§1) The aminocaproate-substituted corrole Complex 3 was submitted to NCI for cytotoxic screening at a single high dose (10−5M) in a panel of 60 human tumor cell lines (NCI60). Details of the cytotoxicity assessment in the NCI anticancer drug screen have been described previously, in Monks A, et al. (1991) Feasibility of a high-flux anticancer drug screen using a diverse panel of cultured human tumor cell lines. J Natl Cancer Inst 83(11):757-766, this reference being incorporated by reference for these teachings.
(§2) In view of the promising results observed for carboxylated corroles, Complex 3 was selected for expanded cell screening to uncover additional susceptible cancer cell lines. The cytotoxic activity of Complex 3 was tested at a dose of 10^−5 M against 60 human cancer cell lines representing nine distinct tumor types in the anticancer screening program of the National Cancer Institute (NCI). The in vitro parameters for cytotoxicity, growth percent, and lethality were obtained for Complex 3 and reported as a mean graph of the percent growth of treated cells (FIG. 7). Bars in the mean graph depict the deviation of individual tumor cell lines from the overall mean value for all cells tested. Bars that project to the right of the mean represent cell lines that are more sensitive to Complex 3, whereas cell lines less sensitive to the compound display bars that project to the left.
(§3) The numerical values associated with this assay represent growth relative to the no-drug control and the numbers of cells at time 0 (FIG. 7). This allows detection of both growth inhibition (values between 0 and 100) and lethality (values less than 0). For example, a value of 100 signifies no growth inhibition, 40 means 60% growth inhibition, 0 means no net growth over the course of the experiment, −40 means 40% lethality, and −100 indicates all cells are dead. […] Growth inhibitions reflect cytostatic activity of the compound as previously shown for Complex 2. In contrast, cell lethality is only evident in melanoma cells, specifically the LOX IMVI and SK-MEL-28 cell lines.

HPO-92 = HPO-92 (Non-small-cell lung cancer), 10 μM, 48 h
Excerpt: as §1, §2, §3

NCl/ADR-RES = NCl/ADR-RES (Ovarian Cancer), 10 μM, 48 h
Excerpt: as §1, §2, §3

MCF7 = MCF7 (Breast Cancer), 10 μM, 48 h
Excerpt: as §1, §2, §3

NCI-H460 = NCI-H460 (Non-small-cell lung cancer), 10 μM, 48 h
Excerpt: as §1, §2, §3

KM12 = KM12 (Colon cancer), 10 μM, 48 h
Excerpt: as §1, §2, §3

COLO 205 = COLO 205 (Colon cancer), 10 μM, 48 h
Excerpt: as §1, §2, §3

UO-31 = UO-31 (Renal Cancer), 10 μM, 48 h
Excerpt: as §1, §2, §3

DU-145 = DU-145 (Prostate Cancer), 10 μM, 48 h
Excerpt: as §1, §2, §3

ACHN = ACHN (Renal Cancer), 10 μM, 48 h
Excerpt: as §1, §2, §3

NCI-H23 = NCI-H23 (Non-small-cell lung cancer), 10 μM, 48 h
Excerpt: as §1, §2, §3

HCT-15 = HCT-15 (Colon cancer), 10 μM, 48 h
Excerpt: as §1, §2, §3

NCI-H226 = NCI-H226 (Non-small-cell lung cancer), 10 μM, 48 h
Excerpt: as §1, §2, §3

HCC-2998 = HCC-2998 (Colon cancer), 10 μM, 48 h
Excerpt: as §1, §2, §3

HS 578T = HS 578T (Breast Cancer), 10 μM, 48 h
Excerpt: as §1, §2, §3

RPMI-8226 = RPMI-8226 (Leukemia), 10 μM, 48 h
Excerpt: as §1, §2, §3

A498 = A498 (Renal Cancer), 10 μM, 48 h
Excerpt: as §1, §2, §3

SW-620 = SW-620 (Colon cancer), 10 μM, 48 h
Excerpt: as §1, §2, §3

PC-3 = PC-3 (Prostate Cancer), 10 μM, 48 h
Excerpt: as §1, §2, §3

HL-60 (TB) = HL-60 (TB) (Leukemia), 10 μM, 48 h
Excerpt: as §1, §2, §3

BT-549 = BT-549 (Breast Cancer), 10 μM, 48 h
Excerpt: as §1, §2, §3

SK-MEL-5 = SK-MEL-5 (Melanoma), 10 μM, 48 h
Excerpt: as §1, §2, §3

CCRF-CEM = CCRF-CEM (Leukemia), 10 μM, 48 h
Excerpt: as §1, §2, §3

UACC-257 = UACC-257 (Melanoma), 10 μM, 48 h
Excerpt: as §1, §2, §3

HOP-62 = HOP-62 (Non-small-cell lung cancer), 10 μM, 48 h
Excerpt: as §1, §2, §3

SR = SR (Leukemia), 10 μM, 48 h
Excerpt: as §1, §2, §3

U251 = U251 (CNS Cancer), 10 μM, 48 h
Excerpt: as §1, §2, §3

SN12C = SN12C (Renal Cancer), 10 μM, 48 h
Excerpt: as §1, §2, §3

SMILES: O=C(O)CCCCCNc1c(F)c(F)c(C2=C3C=CC4=[N+]3[Ga-]35[n]6c2ccc6C(c2c(F)c(F)c(F)c(F)c2F)=c2ccc([n]23)=C(c2c(F)c(F)c(F)c(F)c2F)c2ccc4[n]25)c(F)c1F (stereo not shown) [Complex 3]
- Growth inhibition, % (OVCAR-5): 53.1%
- Growth inhibition, % (HPO-92): 81.6%
- Growth inhibition, % (NCl/ADR-RES): 52.7%
- Growth inhibition, % (MCF7): 63.1%
- Growth inhibition, % (NCI-H460): 94.2%
- Growth inhibition, % (KM12): 80.6%
- Growth inhibition, % (COLO 205): 51.7%
- Growth inhibition, % (UO-31): 64.7%
- Growth inhibition, % (DU-145): 64.7%
- Growth inhibition, % (ACHN): 73.2%
- Growth inhibition, % (NCI-H23): 64.5%
- Growth inhibition, % (HCT-15): 57.0%
- Growth inhibition, % (NCI-H226): 61.1%
- Growth inhibition, % (HCC-2998): 60.1%
- Growth inhibition, % (HS 578T): 81.2%
- Growth inhibition, % (RPMI-8226): 70.2%
- Growth inhibition, % (A498): 99.0%
- Growth inhibition, % (SW-620): 75.9%
- Growth inhibition, % (PC-3): 71.9%
- Growth inhibition, % (HL-60 (TB)): 86.1%
- Growth inhibition, % (BT-549): 73.0%
- Growth inhibition, % (SK-MEL-5): 72.0%
- Growth inhibition, % (CCRF-CEM): 91.1%
- Growth inhibition, % (UACC-257): 37.2%
- Growth inhibition, % (HOP-62): 44.9%
- Growth inhibition, % (SR): 87.5%
- Growth inhibition, % (U251): 77.4%
- Growth inhibition, % (SN12C): 78.8%
